Converted amounts (≈) assume the structure as drawn.
Columns and labels:
Ileum [1] = assay: (§1) Spasmolytic activity in isolated guinea pig ileum assessed as spasmogen-induced inhibition of smooth muscle contraction at 10 ug; format: functional, Cavia porcellus; set-up: scale not given: the % may be the effect or the level left
Ileum [2] = assay: Spasmolytic activity in isolated guinea pig ileum assessed as spasmogen-induced inhibition of smooth muscle contraction; format: functional, tissue-based; details: Cavia porcellus
Ileum [3] = assay: as §1; format: functional, Cavia porcellus; set-up: scale not given: the % may be the effect or the level left; remark: listed apart in the source

IC50 (Ileum [2]) | Structure (SMILES) | Activity (Ileum [1]) | Activity (Ileum [2]) | Activity (Ileum [3])
– | COc1cc2c(cc1OC)-c1c(C)c3ccc4c(c3c[n+]1CC2)OCO4.[Cl-] [DEHYDROCAVIDINE] | 20% | Dose-dependent effect | 40%
0.5 µg/mL (≈ 1.3 µM) | COc1cc2c(cc1OC)C1(C(=O)c3ccc4c(c3[C@H]1O)OCO4)N(C)CC2 (stereo partly drawn) [YENHUSOMIDINE] | 17% | Dose-dependent effect | 52%
– | COc1cc2c(cc1OC)[C@@H]([C@H]1OC(=O)c3c1ccc1c3OCO1)N(C)CC2 [CORLUMINE] | 0% | Dose-dependent effect | 50%
– | COc1cc2c(cc1OC)[C@H]1[C@@H](C)c3ccc4c(c3CN1CC2)OCO4 [CAVIDINE] | 84% | Dose-dependent effect | 100%
